Results on 17 compounds are retold here after patent US20260256751A1, “COMBINATION OF BETA-2-ADRENERGIC RECEPTOR AGONISTS AND GLP-1 RECEPTOR AGONISTS FOR USE IN TREATING HYPERGLYCAEMIA” (ATROGI AB, priority 2023, published 2026).

Experiment [1] concerns differentiated L6-myotubes. Kind of experiment: Glucose uptake screen (Biological example 1 of WO 2019/053427). Type of experiment: cell-based. As to conditions: compound at 10 μM, activity relative to isoproterenol at 10 μM, read-out: Biological example 1 of WO 2019/053427 (GU). The procedure:
(§1) Compounds described in publications referenced and incorporated herein were screened in accordance with the procedures outlined in Biological example 1 and Biological example 2 of WO 2019/053427.
L6-myoblasts were grown in Dulbecco's Modified Eagle's Medium (DMEM) containing 1 g/L glucose supplemented with 10% fetal bovine serum (FBS), 2 mM L-glutamine, 50 U/mL penicillin, […] streptomycin and 10 mM HEPES. Cells were plated at 1x 10^5 cells per mL in 24-well plates. After reaching 90% confluence the cells were grown in medium containing 2% FBS for 7 days where upon cells differentiated into myotubes. The differentiated L6-myotubes were serum-starved overnight in medium containing 0.5% fatty-acid free BSA and stimulated with Compound A at a final concentration of 1×10^−5 M in the presence of the selective β2-adrenergic receptor antagonist ICI-118551. After 1 h 40 min the cells were washed with warm, glucose free medium twice and another portion of agonist was added to the glucose free medium. After another 20 min of incubation the cells were exposed to 50 nM ^3H-2-deoxyglucose for 10 min before washed in ice cold glucose free medium three times and lysed in 400 µl/well 0.2 M NaOH for 1 h at 60° C. The cell lysate was mixed with 4 ml scintillation buffer (Emulsifier Safe, Perkin Elmer) and the radioactivity was detected in a P-counter (Tri-Carb 4810TR, Perkin Elmer).

The test system of experiment [2] is differentiated L6-myotubes. Kind of experiment: cAMP production relative to isoprenaline (Biological example 2 of WO 2019/053427). Type of experiment: cell-based. Particulars: 0.25 h, compound at 10 μM, activity relative to isoproterenol at 10 μM.
Source text: For example, the level of cAMP production induced by a given compound can be determined by reference to the amount induced by a defined concentration of that compound relative to that induced by the same concentration of a reference compound, such as isoprenaline, using techniques known to those skilled in the art (e.g. following the protocol as described in the biological examples provided in WO 2019/053427, i.e. in cells, such as differentiated L6-myotubes, having been stimulated with isoprenaline or the compound with a final concentration of 1×10^−5 M, for 15 min in stimulation buffer, such as HBSS supplemented with 1% BSA, 5 mM HEPES and 1 mM IBMX, at pH 7.4).
as §1
Background: Changes in cAMP serve as a functional read-out for many G protein-coupled receptors.

In the case of `CCCC(C)NCC(O)c1cc(Cl)c(N)c(C(F)(F)F)c1` (stereo not shown) [Compound 33, 1-[4-amino-3-chloro-5-(trifluoromethyl)phenyl]-2-(1-methylbutylamino)-1-ethanol], the Emax at 10 µM in experiment [1] is 50 to 75%; in experiment [2], above 75%.

Take `CCCCNCC(O)c1ccc(Cl)c(O)c1` (stereo not shown) [Compound 34, 2-(butylamino)-1-(4-chloro-3-hydroxyphenyl)-1-ethanol]: the results for the Emax at 10 µM in experiment [1] and in experiment [2] were above 75% and below 25%, respectively.

Regarding `CCCC(C)NCC(O)c1ccc(Cl)c(O)c1` (stereo not shown) [Compound 35, 1-(4-chloro-3-hydroxyphenyl)-2-(1-methylbutylamino)-1-ethanol], the Emax at 10 µM in experiment [1] was above 75%; in experiment [2] it was below 25%.

`CCCCNCC(O)c1ccc(Cl)c(N)c1` (stereo not shown) [Compound 36, 1-(3-amino-4-chlorophenyl)-2-(butylamino)-1-ethanol]: the results for the Emax at 10 µM in experiment [1] and in experiment [2] were 25 to 50% and below 25%, respectively.

For the compound `CCCCNCC(O)c1cc(F)c(N)c(F)c1` (stereo not shown) [Compound 37, 1-(4-amino-3,5-difluorophenyl)-2-(butylamino)-1-ethanol], the Emax at 10 µM in experiment [1] and in experiment [2] was above 75% each time.

For `CCCCNCC(O)c1ccc(F)c(NC(C)=O)c1F` (stereo not shown) [Compound 42, N-{3-[2-(butylamino)-1-hydroxyethyl]-2,6-difluorophenyl}acetamide], the Emax at 10 µM is 25 to 50% in experiment [1] and below 25% in experiment [2].

As for `CCCCNCC(O)c1ccc(F)c(N)c1F` (stereo not shown) [Compound 43, 1-(3-amino-2,4-difluorophenyl)-2-(butylamino)-1-ethanol], the Emax at 10 µM in experiment [1] is above 75%; in experiment [2], below 25%.

Turning to `CCCCNCC(O)c1ccc(F)c(N)c1` (stereo not shown) [Compound 44, 1-(3-amino-4-fluorophenyl)-2-(butylamino)-1-ethanol], the Emax at 10 µM in experiment [1] is 50 to 75%; in experiment [2], below 25%.

Regarding `CCC[C@@H]1CCC[C@H]([C@H](O)c2cccc(O)c2)N1` [Compound 45, (R)-[(2R,6R)-6-propyl-2-piperidyl](m-hydroxyphenyl)methanol], the Emax at 10 µM in experiment [1] was above 75%; in experiment [2] it was below 25%.

As to `CCCCNC[C@H](O)c1ccc(F)cc1` [Compound 46, (R)-2-(butylamino)-1-(p-fluorophenyl)-1-ethanol], the Emax at 10 µM is 50 to 75% in experiment [1] and below 25% in experiment [2].

As for `CCCCNC[C@H](O)c1cccc(F)c1` [Compound 47, (R)-2-(butylamino)-1-(m-fluorophenyl)-1-ethanol], the figures for the Emax at 10 µM in experiment [1] and in experiment [2] were 50 to 75% and below 25%, respectively.

As for `CCCCNCC(O)c1ccncc1` (stereo not shown) [Compound 48, 2-(butylamino)-1-(4-pyridyl)-1-ethanol], the Emax at 10 µM in experiment [1] was 25 to 50%; in experiment [2], below 25%.

On to `CCCCNCC(O)c1cccnc1` (stereo not shown) [Compound 49, 2-(butylamino)-1-(3-pyridyl)-1-ethanol], for which the Emax at 10 µM in experiment [1] was 50 to 75%; in experiment [2] it was below 25%.

On to `CCC[C@@H](C)NC[C@H](O)c1cccc(F)c1` [Compound 50, (R)-2-[(R)-1-methylbutylamino]-1-(m-fluorophenyl)-1-ethanol], for which the Emax at 10 µM was above 75% in experiment [1] and below 25% in experiment [2].

`CCC[C@H](C)NC[C@H](O)c1cccc(F)c1` [Compound 51, (R)-2-[(S)-1-methylbutylamino]-1-(m-fluorophenyl)-1-ethanol]: the Emax at 10 µM in experiment [1] is above 75%; in experiment [2] it was below 25%.

For `CCC[C@@H](C)NC[C@H](O)c1ccc(F)cc1` [Compound 52, (R)-2-[(R)-1-methylbutylamino]-1-(p-fluorophenyl)-1-ethanol], the Emax at 10 µM in experiment [1] was 50 to 75%; in experiment [2] it was below 25%.

As to `CCC[C@H](C)NC[C@H](O)c1ccc(F)cc1` [Compound 53, (R)-2-[(S)-1-methylbutylamino]-1-(p-fluorophenyl)-1-ethanol], the Emax at 10 µM was 50 to 75% in experiment [1] and below 25% in experiment [2].
